In patent US7501410B2, “Methods of inhibiting BTK and SYK protein kinases” (Roche Palo Alto LLC, priority 2006, dated 2009):
“And” between values parts separate entries of the source, which are not always exact repeats. Equal values may be shown once. Read-outs that look alike come from different tables or passages of the source.

Columns and labels:
[1] = target: T1, Bruton's Tyrosine Kinase (Btk) (Homo sapiens, UniProt Q06187); assay: Determination of IC50 of Bruton's Tyrosine Kinase (Btk) inhibition, 33P filtration assay; assay type: biochemical; conditions: His-tagged full-length Btk, 100 μM ATP
T1 construct: 5-10 nM Btk enzyme (His-tagged, full-length); His tag
T1 sequence (Q06187 whole entry): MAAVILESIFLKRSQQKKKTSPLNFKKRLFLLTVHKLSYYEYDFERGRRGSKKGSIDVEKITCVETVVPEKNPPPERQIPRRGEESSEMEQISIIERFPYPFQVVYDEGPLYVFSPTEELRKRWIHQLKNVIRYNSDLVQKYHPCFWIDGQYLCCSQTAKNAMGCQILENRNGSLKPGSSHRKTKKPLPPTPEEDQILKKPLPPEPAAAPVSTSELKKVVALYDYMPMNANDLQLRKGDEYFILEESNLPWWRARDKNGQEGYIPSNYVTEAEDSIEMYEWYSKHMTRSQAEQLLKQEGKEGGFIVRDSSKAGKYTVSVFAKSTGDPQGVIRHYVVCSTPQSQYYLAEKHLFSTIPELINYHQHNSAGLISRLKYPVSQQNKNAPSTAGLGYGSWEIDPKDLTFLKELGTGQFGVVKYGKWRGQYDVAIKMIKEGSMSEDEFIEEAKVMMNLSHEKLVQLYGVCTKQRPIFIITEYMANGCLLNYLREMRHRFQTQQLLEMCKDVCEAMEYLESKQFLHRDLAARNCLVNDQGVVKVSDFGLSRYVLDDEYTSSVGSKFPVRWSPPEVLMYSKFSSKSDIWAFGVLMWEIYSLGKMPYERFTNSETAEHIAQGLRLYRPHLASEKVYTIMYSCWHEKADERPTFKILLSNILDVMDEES
Excerpt: Determination of IC50 of Bruton's Tyrosine Kinase (Btk) Inhibition
The assay is a capture of radioactive ^33P phosphorylated product through filtration. The interactions of Btk, biotinylated SH2 peptide substrate (Src homology), and ATP lead to phosphorylation of the peptide substrate. Biotinylated product is bound streptavidin sepharose beads. All bound, radiolabeled products are detected by scintillation counter.
Plates assayed are 96-well polypropylene (Greiner) and 96-well 1.2 μm hydrophilic PVDF filter plates (Millipore). Concentrations reported here are final assay concentrations: 10-100 μM compounds in DMSO (Burdick and Jackson), 5-10 nM Btk enzyme (His-tagged, full-length), 30 μM peptide substrate (Biotin-Aca-[…]-NH2), 100 μM ATP (Sigma), 8 mM imidazole (Sigma, pH 7.2), 8 mM glycerol-2-phosphate (Sigma), 200 μM EGTA (Roche Diagnostics), 1 mM MnCl2 (Sigma), 20 mM MgCl2 (Sigma), 0.1 mg/ml BSA (Sigma), 2 mM DTT (Sigma), 1 μCi ^33P ATP (Amersham), 20% streptavidin sepharose beads (Amersham), 50 mM EDTA (Gibco), 2 M NaCl (Gibco), 2 M NaCl w/1% phosphoric acid (Gibco), microscint-20 (Perkin Elmer).
IC50 determinations are calculated from 10 data points per compound utilizing data produced from a standard 96-well plate assay template. One control compound and seven unknown inhibitors were tested on each plate and each plate was run twice. Typically, compounds were diluted in half-log starting at 100 μM and ending at 3 nM. The control compound was staurosporine. Background was counted in the absence of peptide substrate. Total activity was determined in the presence of peptide substrate. The following protocol was used to determine BTK inhibition.
1) Sample preparation: The test compounds were diluted at half-log increments in assay buffer (imidazole, glycerol-2-phosphate, EGTA, MnCl2, MgCl2, BSA).
2) Bead preparation • a.) rinse beads by centrifuging at 500 g • b.) reconstitute the beads with PBS and EDTA to produce a 20% bead slurry
3) Pre-incubate reaction mix without substrate (assay buffer, DTT, ATP, ^33P ATP) and mix with substrate (assay buffer, DTT, ATP, ^33P ATP, peptide substrate) 30° C. for 15 min.
4) To start assay, pre-incubate 10 μL BTK in enzyme buffer (imidazole, glycerol-2-phosphate, BSA) and 10 μL of test compounds for 10 min at RT.
5) Add 30 μL reaction mixture without or with substrate to BTK and compounds.
6) Incubate 50 μL total assay mix for 30 min at 30° C.
7) Transfer 40 μL of assay to 150 μL bead slurry in filter plate to stop reaction.
8) Wash filter plate after 30 min, with following steps • a. 3 ×250 μL NaCl • b. 3×250 μL NaCl containing 1% phosphoric acid • c. 1×250 μL H2O
9) Dry plate for 1 h at 65° C. or overnight at RT
10) Add 50 μL microscint-20 and count ^33P cpm on scintillation counter.
Calculate percent activity from raw data in cpm percent activity=(sample−bkg)/(total activity−bkg)×100

[2] = target: T2, Spleen Tyrosine Kinase (SYK) aa 360-635 (Homo sapiens, UniProt P43405); assay: Determination of IC50 of Spleen Tyrosine Kinase (SYK) inhibition, 33P kinase assay; assay type: biochemical; conditions: recombinant human SYK360-635, 20 μM ATP
T2 construct: truncated construct of Spleen Tyrosine Kinase aa 360-635; made in house
Description: Determination of IC50 of Spleen Tyrosine Kinase (SYK) Inhibition
The SYK kinase assay is a standard kinase assay adapted to a 96 well plate format. This assay is performed in 96-well format for IC50 determination with 8 samples which represented 10 half log dilutions and a 40 μL reaction volume. The assay measures the incorporation of radiolabeled ^33P γATP into an N-terminally biotinylated peptide substrate, derived from naturally occurring phosphoacceptor consensus sequence (Biotin-11aa DY*E). Phosphorylated products were detected upon termination of reactions with EDTA and the addition of Streptavidin coated beads. • Assay plates: 96-well MultiScreen 0.65 um filter plates (Millipore Cat. No.: MADVNOB10) • Streptavidin coated beads: Streptavidin Sepharose TM, suspension 5.0 mL, in 50 mM EDTA/PBS diluted (1:100), (Amersham, Cat. No.: 17-5113-01) • Compounds: 10 mM in 100% dimethylsulfoxide (DMSO), final conc.: compound 0.003-100 uM in 10% DMSO • Enzyme: SYK RPA purified, truncated construct of Spleen Tyrosine Kinase aa 360-635, stock solution 1 mg/mL, MW: 31.2 KDa, final conc.:0.0005 μM. • Peptide 1: biotinylated peptide is derived from a naturally occurring phosphor-acceptor consensus sequence (Biotin-[…]), special order from QCB, stock solution 20 mM, final conc.: 5.0 μM. • ATP: Adenosine-5′-triphosphate 20 mM, (ROCHE Cat. No.:93202720), final concentration: 20 μM • Buffer: HEPES: 2-Hydroxyethyl piperazine-2-ethanesulfonic acid (Sigma, Cat. No.: H-3375) final concentration: 50 mM HEPES pH7.5 • BSA: Bovine Serum Albumin Fraction V, fatty acid free (Roche Diagnostics GmbH, Cat. No. 9100221) diluted to a final concentration of 0.1% • EDTA: EDTA stock solution 500 mM, (GIBCO, Cat. No.: 15575-038) final concentration: 0.1 mM • DTT: 1,4-Dithiothreitol (Roche Diagnostics GmbH, Cat. No.: 197777), final conc.: 1 mM • MgCl2×6H2O: MERCK, Cat. No.: 105833.1000, final concentration: 10 mM • Assay Dilution Buffer (ADB): 50 mM HEPES, 0.1 mM EGTA, 0.1 mM Na Vanadate, 0.1 mM β-glycerophosphate, 10 mM MgCl2, 1 mM DTT, 0,1% BSA, pH 7.5 • Bead wash buffer: 10 g/L PBS (Phosphate buffered saline) with 2M NaCl+1% phosphoric acid Experimental Method:
In 40 μL volume, 26 μL of ADB diluted, purified recombinant human SYK360-635 [0.5 nM] was mixed with 4 μL of 10× concentrations of the test compounds, [usually 100 μM-0.003 μM] in [10%] DMSO and the mixture was incubated for 10 min at RT.
The kinase reaction was initiated by the addition of 10 μL 4× substrate cocktail containing the DYE peptide substrate [0 or 5 μM], ATP [20 μM] and […] [2 μCi/rxn]. After incubation at 30° C. for 15 min, the reaction was terminated by the transfer of 25 μL of the reaction sample to a 96 well 0.65 um Millipore MADVNOB membrane/plate containing 200 μL 5 mM EDTA and 20% Streptavidine coated beads in PBS.
The unbound radionucleotides were washed under vacuum with 3×250 μL 2M NaCl; 2×250 μL 2M NaCl+1% phosphoric acid; 1×250 μL H2O. After the last wash membrane/plates were transferred to an adaptor plate, heat dried for 15 min at 60° C., and 50 μL scintillation cocktail was added to each well and 4 h later the amount of radioactivity was counted in a top counter.
The IC50 was calculated using a non-linear curve fit with XLfit software (ID Business Solution Ltd., Guilford, Surrey, UK). […] Representative results are in Table 1.

| Compound | IC50 [1] | IC50 ([2]; read-out: IC50 (μM) SYK Assay) | IC50 ([2]; IC50 (μM) SYK Assay) |
| --- | --- | --- | --- |
| Cc1cc(Nc2nn(C(C)C)c(=O)c3cc(CO)ccc23)[nH]n1 [Example M-9, 7-Hydroxymethyl-2-isopropyl-4-(5-methyl-1H-pyrazol-3-ylamino)-2H-phthalazin-1-one] | 0.782 µM | 0.666 µM |  |
| Cc1cc(Nc2nn(C)c(=O)c3ccccc23)n[nH]1 [Example A-3, 2-methyl-4-(5-methyl-1H-pyrazol-3-yl-amino)-2H-phthalazin-1-one] | 70.5 µM |  |  |
| Cc1cc(Nc2nn(C(C)C)c(=O)c3ccc(N4CCOCC4)cc23)n[nH]1 [Example F-2, 2-Isopropyl-4-(5-methyl-1H-pyrazol-3-ylamino)-6-morpholino-2H-phthalazin-1-one] | > 100 µM | 36.4 µM |  |
| Cc1ccc(-n2nc(Nc3cc[nH]n3)c3ccccc3c2=O)cc1 [Example A-10, 4-(1H-pyrazol-3-yl-amino)-2-p-tolyl-2H-phthalazin-1-one] | 16.6 µM |  |  |
| 4-(5-Methyl-2H-pyrazole-3-ylamino)-phenyl-2H-phthalazin-1-one [Example A-1] | 1.25 µM |  |  |
| Cc1cc(Nc2nn(CC(=O)c3ccccc3)c(=O)c3ccccc23)n[nH]1 [Example E-9, 4-(5-methyl-1H-pyrazol-3-ylamino)-2-(2-oxo-2-phenyl-ethyl)-2H-phthalazin-1-one] | 10.4 µM | 7.67 µM |  |
| Cc1cc(Nc2nn(C(C)C)c(=O)c3ccccc23)n[nH]1 [Example A-23, 2-isopropyl-4-(5-methyl-1H-pyrazol-3-ylamino)-2H-phthalazin-1-one] | 50.9 µM |  |  |
| Cc1cc(Nc2nn(C(C)C)c(=O)c3cc(N4CCCCC4)ccc23)n[nH]1 [Example F-10, 2-Isopropyl-4-(5-methyl-1H-pyrazol-3-ylamino)-7-piperidin-1-yl-2H-phthalazin-1-one] | 0.608 µM |  | 0.551 µM and 4.3 µM and 3.57 µM |
| Cc1cc(Nc2nn(C(C)C)c(=O)c3cc(N(C)Cc4ccncc4)ccc23)n[nH]1 [Example I-2, 2-Isopropyl-4-(5-methyl-1H-pyrazol-3-ylamino)-7-(methyl-pyridin-4-ylmethyl-amino)-2H-phthalazin-1-one] | 0.231 µM | 0.392 µM |  |
| Cc1cc(Nc2nn(C(C)C)c(=O)c3ccc(CO)cc23)n[nH]1 [Example M-10, 6-Hydroxymethyl-2-isopropyl-4-(5-methyl-1H-pyrazol-3-yl-amino)-2H-phthalazin-1-one] |  | 56.9 µM |  |
| Cc1cc(Nc2nn(CC(F)(F)F)c(=O)c3ccccc23)n[nH]1 [Example A-5, 4-(5-methyl-1H-pyrazol-3-ylamino)-2-(2,2,2-trifluoro-ethyl)-2H-phthalazin-1-one] | 8.22 µM | 7.68 µM |  |
| Cc1cc(Nc2nn(C(C)C)c(=O)c3ccc(F)cc23)n[nH]1 [Example E-3, 6-Fluoro-2-isopropyl-4-(5-methyl-1H-pyrazol-3-ylamino)-2H-phthalazin-1-one] | 58.2 µM | 87.5 µM |  |
| Cc1cc(Nc2nn(C(C)C)c(=O)c3cc(S(C)(=O)=O)ccc23)n[nH]1 [Example H-2, 2-Isopropyl-7-methanesulfonyl-4-(5-methyl-1H-pyrazol-3-ylamino)-2H-phthalazin-1-one] | 1.11 µM | 4.29 µM |  |
| Cc1cc(Nc2nn(-c3ccc(C(F)(F)F)cc3)c(=O)c3ccccc23)[nH]n1 [Example A-25, 4-(5-methyl-1H-pyrazol-3-ylamino)-2-(4-trifluoromethyl-phenyl)-2H-phthalazin-1-one] |  | 0.525 µM |  |
| COCc1ccc2c(Nc3cc(C)[nH]n3)nn(C(C)C)c(=O)c2c1 [Example K-1, 2-Isopropyl-7-methoxymethyl-4-(5-methyl-1H-pyrazol-3-ylamino)-2H-phthalazin-1-one] |  | 1.25 µM |  |
| Cc1ccc(-n2nc(Nc3cc(C)[nH]n3)c3ccccc3c2=O)cc1 [Example A-6, 4-(5-methyl-1H-pyrazol-3-ylamino)-2-p-tolyl-2H-phthalazin-1-one] | 38.2 µM |  |  |
| COc1ccc(-n2nc(Nc3cc(C)[nH]n3)c3ccccc3c2=O)cc1 [Example A-9, 2-(4-methoxy-phenyl)-4-(5-methyl-1H-pyrazol-3-ylamino)-2H-phthalazin-1-one] | 5.87 µM |  |  |
| Cc1cc(Nc2nn(Cc3cccnc3)c(=O)c3ccccc23)[nH]n1 [Example A-18, 4-(5-methyl-2H-pyrazol-3-ylamino)-2-pyridin-3-ylmethyl-2H-phthalazin-1-one] |  | 6.53 µM |  |
| Cc1cc(Nc2nn(CC(C)C)c(=O)c3ccccc23)n[nH]1 [Example A-4, 2-isobutyl-4-(5-methyl-1H-pyrazol-3-ylamino)-2H-phthalazin-1-one] | 11.4 µM |  |  |
| Cc1cc(Nc2nn(Cc3ccccc3)c(=O)c3ccccc23)n[nH]1 [Example E-1, 2-Benzyl-4-(5-methyl-1H-pyrazol-3-ylamino)-2H-phthalazin-1-one] | > 100 µM |  |  |
| Cc1cc(Nc2nn(Cc3ccccn3)c(=O)c3ccccc23)[nH]n1 [Example A-22, 4-(5-methyl-2H-pyrazol-3-ylamino)-2-pyridin-2-ylmethyl-2H-phthalazin-1-one] |  | 78.1 µM |  |
| Cc1cc(Nc2nn(-c3ccc(F)cc3)c(=O)c3ccccc23)n[nH]1 [Example A-7, 2-(4-fluoro-phenyl)-4-(5-methyl-1H-pyrazol-3-ylamino)-2H-phthalazin-1-one] | 6.3 µM |  |  |
